Results from patent US10538495B2, “Modulators of indoleamine 2,3-dioxygenase” (GLAXOSMITHKLINE INTELLECTUAL PROPERTY DEVELOPMENT LIMITED, priority 2016, dated 2020).
Like-named read-outs stand apart in the source and are kept apart here.

Tests used:
[1] = target: T1, indoleamine 2,3-dioxygenase (IDO1) (Homo sapiens, UniProt P14902); assay: HeLa IDOi assay (kynurenine by mass spectrometry); assay type: cell-based; parameters: human epithelial HeLa cells (CCL-2; host or cells: HeLa cells stimulated with human IFN-γ; details: IFN-γ stimulated HeLa cells, 2 days, kynurenine detected by mass spectrometry; read-out: HeLa pIC50 (converted)
Procedure: (§1) Brief descriptions of the cellular assays are provided following the table.
(§2) Compounds of the present invention were tested via high-throughput cellular assays utilizing detection of kynurenine via mass spectrometry and cytotoxicity as end-points. For the mass spectrometry and cytotoxicity assays, human epithelial HeLa cells (CCL-2; ATCC®, Manassas, Va.) were stimulated with human interferon-γ (IFN-γ) (Sigma-Aldrich Corporation, St. Louis, Mo.) to induce the expression of indoleamine 2,3-dioxygenase (IDO1). Compounds with IDO1 inhibitory properties decreased the amount of kynurenine produced by the cells via the tryptophan catabolic pathway. Cellular toxicity due to the effect of compound treatment was measured using CellTiter-Glo® reagent (CTG) (Promega Corporation, Madison, Wis.), which is based on luminescent detection of ATP, an indicator of metabolically active cells.
(§3) In preparation for the assays, test compounds were serially diluted 3-fold in DMSO from a typical top concentration of 5 mM and plated at 0.5 μL in 384-well, polystyrene, clear bottom, tissue culture treated plates with lids (Greiner Bio-One, Kremsmünster, Austria) to generate 11-point dose response curves. Low control wells (0% kynurenine or 100% cytotoxicity) contained either 0.5 μL of DMSO in the presence of unstimulated (−IFN-γ) HeLa cells for the mass spectrometry assay or 0.5 μL of DMSO in the absence of cells for the cytotoxicity assay, and high control wells (100% kynurenine or 0% cytotoxicity) contained 0.5 μL of DMSO in the presence of stimulated (+IFN-γ) HeLa cells for both the mass spectrometry and cytotoxicity assays.
Frozen stocks of HeLa cells were washed and recovered in DMEM high glucose medium with HEPES (Thermo Fisher Scientific, Inc., Waltham, Mass.) supplemented with 10% v/v certified fetal bovine serum (FBS) (Thermo Fisher Scientific, Inc., Waltham, Mass.), and 1× penicillin-streptomycin antibiotic solution (Thermo Fisher Scientific, Inc., Waltham, Mass.). The cells were diluted to 100,000 cells/mL in the supplemented DMEM medium. 50 μL of either the cell suspension, for the mass spectrometry assay, or medium alone, for the cytotoxicity assay, were added to the low control wells, on the previously prepared 384-well compound plates, resulting in 5,000 cells/well or 0 cells/well respectively. IFN-γ was added to the remaining cell suspension at a final concentration of 10 nM, and 50 μL of the stimulated cells were added to all remaining wells on the 384-well compound plates. The plates, with lids, were then placed in a 37° C., 5% CO2 humidified incubator for 2 days.
(§4) Following incubation, the 384-well plates were removed from the incubator and allowed to equilibrate to room temperature for 30 minutes. For the cytotoxicity assay, CellTiter-Glo® was prepared according to the manufacturer's instructions, and 10 μL were added to each plate well. After a twenty minute incubation at room temperature, luminescence was read on an EnVision® Multilabel Reader (PerkinElmer Inc., Waltham, Mass.). For the mass spectrometry assay, 10 μL of supernatant from each well of the compound-treated plates were added to 40 μL of acetonitrile, containing 10 μM of an internal standard for normalization, in 384-well, polypropylene, V-bottom plates (Greiner Bio-One, Kremsmünster, Austria) to extract the organic analytes. Following centrifugation at 2000 rpm for 10 minutes, 10 μL from each well of the acetonitrile extraction plates were added to 90 μL of sterile, distilled H2O in 384-well, polypropylene, V-bottom plates for analysis of kynurenine and the internal standard on the RapidFire 300 (Agilent Technologies, Santa Clara, Calif.) and 4000 QTRAP MS (SCIEX, Framingham, Mass.). MS data were integrated using Agilent Technologies' RapidFire Integrator software, and data were normalized for analysis as a ratio of kynurenine to the internal standard. […]

[2] = target: T1, indoleamine 2,3-dioxygenase (IDO1); assay: PBMC IDOi assay (kynurenine by mass spectrometry); assay type: cell-based; details: IFN-γ and LPS stimulated human PBMC, 2 days, kynurenine detected by mass spectrometry; read-out: PBMC pIC50 (converted)
Procedure: as §1
as §2, with “peripheral blood mononuclear” for “epithelial HeLa”, “(PBMC) (PB003F; AllCells®, Alameda, Calif.)” for “(CCL-2; ATCC®, Manassas, Va.)”, “Mo.) and lipopolysaccharide from Salmonella minnesota (LPS) (Invivogen, San Diego, Calif.)” for “Mo.)”
as §3, with “(−IFN-γ/−LPS) PBMCs” for “(−IFN-γ) HeLa cells”, “(+IFN-γ/+LPS) PBMCs” for “(+IFN-γ) HeLa cells”
Frozen stocks of PBMCs were washed and recovered in RPMI 1640 medium (Thermo Fisher Scientific, Inc., Waltham, Mass.) supplemented with 10% v/v heat-inactivated fetal bovine serum (FBS) (Thermo Fisher Scientific, Inc., Waltham, Mass.), and 1× penicillin-streptomycin antibiotic solution (Thermo Fisher Scientific, Inc., Waltham, Mass.). The cells were diluted to 1,000,000 cells/mL in the supplemented RPMI 1640 medium. 50 μL of either the cell suspension, for the mass spectrometry assay, or medium alone, for the cytotoxicity assay, were added to the low control wells, on the previously prepared 384-well compound plates, resulting in 50,000 cells/well or 0 cells/well respectively. IFN-γ and LPS were added to the remaining cell suspension at final concentrations of 100 ng/ml and 50 ng/ml respectively, and 50 μL of the stimulated cells were added to all remaining wells on the 384-well compound plates. The plates, with lids, were then placed in a 37° C., 5% CO2 humidified incubator for 2 days.
as §4, with “and 40” for “and 10”, “Mass.).” for “Mass.). MS data were integrated using Agilent Technologies' RapidFire Integrator software, and data were normalized for analysis as a ratio of kynurenine to the internal standard.”

[3] = tested on: conversion of T cells into CD4+FoxP3+ Tregs; details: co-culture of DCs and naïve CD4+CD25− T cells; cited from earlier work
PAN02 pancreatic cells = details: orally dosed, cited from earlier work

T1 sequence (P14902 whole entry): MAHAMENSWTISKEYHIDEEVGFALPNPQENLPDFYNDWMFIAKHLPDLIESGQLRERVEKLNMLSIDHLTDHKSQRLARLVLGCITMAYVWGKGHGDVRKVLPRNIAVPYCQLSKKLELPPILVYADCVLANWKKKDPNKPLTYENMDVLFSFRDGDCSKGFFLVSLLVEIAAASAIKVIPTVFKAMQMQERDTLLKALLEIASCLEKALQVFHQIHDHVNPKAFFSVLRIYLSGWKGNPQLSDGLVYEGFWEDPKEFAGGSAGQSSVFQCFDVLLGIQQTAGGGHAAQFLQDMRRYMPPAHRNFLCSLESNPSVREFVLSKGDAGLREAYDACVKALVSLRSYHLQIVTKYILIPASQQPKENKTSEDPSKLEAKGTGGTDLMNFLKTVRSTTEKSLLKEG

IC50 [1] | IC50 [2] | SMILES | conversion of T cells into CD4+FoxP3+ Tregs [3] | inhibition of tumor growth (PAN02 pancreatic cells; PAN02 syngeneic model, immunocompetent mice) | inhibition of tumor growth (PAN02 pancreatic cells; same tumor implanted in immune-deficient mice)
0.0158 µM | 0.0631 µM | Cc1ccc(CC(=O)Nc2cc(-c3ccccc3-c3nnn(COP(=O)(O)O)n3)ccc2SC(C)(C)C)cc1 [Example 51, (5-(4′-(tert-Butylthio)-3′-(2-(p-tolyl)acetamido)-[1,1′-biphenyl]-2-yl)-2H-tetrazol-2-yl)methyl Dihydrogen Phosphate] | – | – | –
0.0251 µM | 0.158 µM | Cc1ccc(CC(=O)Nc2cc(-c3ccccc3-c3nnnn3COP(=O)(O)O)ccc2SC(C)(C)C)cc1 [Example 52, (5-(4′-(tert-Butylthio)-3′-(2-(p-tolyl)acetamido)-[1,1′-biphenyl]-2-yl)-1H-tetrazol-1-yl)methyl Dihydrogen] | – | – | –
0.0316 µM | 0.0501 µM | Cc1ccc(CC(=O)Nc2cc(-c3ccccc3-c3nnn(COC(=O)C(C)(C)C)n3)ccc2SC(C)(C)C)cc1 [Example 55, (5-(4′-(tert-Butylthio)-3′-(2-(p-tolyl)acetamido)-[1,1′-biphenyl]-2-yl)-2H-tetrazol-2-yl)methyl pivalate] | – | – | –
0.0316 µM | 0.02 µM | Cc1ccc(CC(=O)Nc2cc(-c3ccccc3-c3nnnn3COC(=O)C(C)(C)C)ccc2SC(C)(C)C)cc1 [Example 56, (5-(4′-(tert-butylthio)-3′-(2-(p-tolyl)acetamido)-[1,1′-biphenyl]-2-yl)-1H-tetrazol-1-yl)methyl Pivalate] | – | – | –
0.0631 µM | 0.0501 µM | Cc1ccc(CC(=O)Nc2cc(-c3ccccc3-c3nnn[nH]3)cnc2SC(C)(C)C)cc1 [Example 64, N-(5-(2-(1H-tetrazol-5-yl)phenyl)-2-(tert-butylthio)pyridin-3-yl)-2-(p-tolyl)acetamide] | – | – | –
0.0398 µM | 0.0251 µM | CC(C)(C)Sc1ncc(-c2ccccc2-c2nnn[nH]2)cc1NC(=O)Cc1ccc(C(F)(F)F)cc1 [Example 65, N-(5-(2-(1H-tetrazol-5-yl)phenyl)-2-(tert-butylthio)pyridin-3-yl)-2-(4-(trifluoromethyl)phenyl)acetamide] | – | – | –
0.01 µM | 0.00794 µM | Cc1ccc(CC(=O)Nc2cc(-c3ccccc3-c3nnn[nH]3)cnc2SC(C)(C)C)c(C)c1 [Example 66, N-(5-(2-(1H-tetrazol-5-yl)phenyl)-2-(tert-butylthio)pyridin-3-yl)-2-(2,4-dimethylphenyl)acetamide] | – | – | –
0.1 µM | 0.0126 µM | CC(C)(C)Sc1ncc(-c2ccccc2-c2nnn[nH]2)cc1NC(=O)Cc1ccccc1C(F)(F)F [Example 67, N-(5-(2-(1H-tetrazol-5-yl)phenyl)-2-(tert-butylthio)pyridin-3-yl)-2-(2-(trifluoromethyl)phenyl)acetamide] | – | – | –

Further lines, the molecule ahead of its results:

SMILES | IC50 [1] | IC50 [2] | conversion of T cells into CD4+FoxP3+ Tregs [3] | inhibition of tumor growth (PAN02 pancreatic cells; PAN02 syngeneic model, immunocompetent mice) | inhibition of tumor growth (PAN02 pancreatic cells; same tumor implanted in immune-deficient mice)
Cc1cc(C)c(CC(=O)Nc2cc(-c3ccccc3-c3nn[nH]n3)ccc2SC(C)(C)C)c(C)c1 [Example 39, N-(4-(tert-butylthio)-2′-(2H-tetrazol-5-yl)-[1,1′-biphenyl]-3-yl)-2-mesitylacetamide] | 0.00251 µM | 0.00158 µM | – | – | –
CC(C)(C)Sc1ccc(-c2ccccc2-c2nn[nH]n2)cc1NC(=O)Cc1ccc(Br)cc1 [Example 40, 2-(4-Bromophenyl)-N-(4-(tert-butylthio)-2′-(2H-tetrazol-5-yl)-[1,1′-biphenyl]-3-yl)acetamide] | 0.0316 µM | 0.02 µM | – | – | –
CC(C)(C)Sc1ccc(-c2ccccc2-c2nn[nH]n2)cc1Nc1nc(C(F)(F)F)ns1 [Example 43, N-(4-(tert-butylthio)-2′-(2H-tetrazol-5-yl)-[1,1′-biphenyl]-3-yl)-3-(trifluoromethyl)-1,2,4-thiadiazol-5-amine] | 0.0501 µM | 0.0126 µM | – | – | –
Cc1ccc(CC(=O)Nc2cc(-c3ccccc3C#N)ccc2SC(C)(C)C)cc1 [Example 46, N-(4-(tert-butylthio)-2′-cyano-[1,1′-biphenyl]-3-yl)-2-(p-tolyl)acetamide] | 6.31 µM | 5.01 µM | – | – | –
Cc1ccc(CC(=O)Nc2cc(-c3ccccc3C(N)=O)ccc2SC(C)(C)C)cc1 [Example 47, 4′-(tert-Butylthio)-3′-(2-(p-tolyl)acetamido)-[1,1′-biphenyl]-2-carboxamide] | 0.501 µM | 0.501 µM | – | – | –
NS(=O)(=O)NCCNc1nonc1C(=NO)Nc1ccc(F)c(Br)c1 [INCB204360] | – | – | blocked the conversion | significant dose-dependent inhibition of tumor growth | without effect
